According to ChEMBL document CHEMBL5465560, “Selectivity Literature for EUbOPEN Chemogenomic Library” (2024):
Each block holds one molecule with its values, some of them ahead of it.

How the values were obtained:
[1] = molecular target: T1, Serine/threonine-protein kinase NLK (Homo sapiens) (UniProt Q9UBE8); assay: Selectivity interaction (ProQinase) EUB0000171b NLK
T1 sequence (whole entry): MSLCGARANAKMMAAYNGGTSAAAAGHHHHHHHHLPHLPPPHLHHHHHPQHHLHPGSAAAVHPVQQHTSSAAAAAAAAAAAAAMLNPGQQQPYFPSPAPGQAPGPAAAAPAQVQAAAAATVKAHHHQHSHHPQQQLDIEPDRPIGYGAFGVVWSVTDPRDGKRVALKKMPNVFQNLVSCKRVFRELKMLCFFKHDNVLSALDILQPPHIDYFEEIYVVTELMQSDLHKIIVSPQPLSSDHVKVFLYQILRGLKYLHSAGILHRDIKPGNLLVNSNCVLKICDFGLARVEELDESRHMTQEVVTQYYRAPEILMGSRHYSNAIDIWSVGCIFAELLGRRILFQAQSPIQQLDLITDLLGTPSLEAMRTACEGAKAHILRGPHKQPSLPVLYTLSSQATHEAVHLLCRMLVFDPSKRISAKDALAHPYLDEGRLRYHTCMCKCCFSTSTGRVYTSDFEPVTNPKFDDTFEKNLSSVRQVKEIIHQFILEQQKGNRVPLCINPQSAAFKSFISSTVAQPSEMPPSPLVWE

[2] = molecular target: Serine/threonine-protein kinase tousled-like 2 (Homo sapiens) (UniProt Q86UE8); assay: Selectivity interaction (ProQinase) EUB0000171b TLK2
Serine/threonine-protein kinase tousled-like 2 (Homo sapiens), sequence (Q86UE8 whole entry, looked up): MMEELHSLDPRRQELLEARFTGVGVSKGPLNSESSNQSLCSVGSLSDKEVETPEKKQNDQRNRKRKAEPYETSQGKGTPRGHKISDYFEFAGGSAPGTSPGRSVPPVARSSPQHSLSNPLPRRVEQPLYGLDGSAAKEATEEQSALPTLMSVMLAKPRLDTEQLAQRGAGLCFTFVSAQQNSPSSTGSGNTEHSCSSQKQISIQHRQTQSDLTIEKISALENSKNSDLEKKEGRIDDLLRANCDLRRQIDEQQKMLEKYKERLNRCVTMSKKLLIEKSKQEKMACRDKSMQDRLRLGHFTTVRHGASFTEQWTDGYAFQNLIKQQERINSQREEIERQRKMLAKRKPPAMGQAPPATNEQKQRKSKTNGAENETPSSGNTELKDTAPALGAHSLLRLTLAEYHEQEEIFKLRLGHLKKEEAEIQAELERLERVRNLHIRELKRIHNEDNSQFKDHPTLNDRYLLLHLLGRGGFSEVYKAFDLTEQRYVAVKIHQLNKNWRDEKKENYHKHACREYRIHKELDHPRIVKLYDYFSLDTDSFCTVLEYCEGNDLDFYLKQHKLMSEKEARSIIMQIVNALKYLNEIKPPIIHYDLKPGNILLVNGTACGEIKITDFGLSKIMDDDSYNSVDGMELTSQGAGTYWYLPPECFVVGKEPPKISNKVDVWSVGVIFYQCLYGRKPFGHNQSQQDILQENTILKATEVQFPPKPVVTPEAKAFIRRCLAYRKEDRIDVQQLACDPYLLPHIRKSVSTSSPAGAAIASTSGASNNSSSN

[3] = molecular target: Tyrosine-protein kinase SYK (Homo sapiens, UniProt P43405); assay: Selectivity interaction (KinomeScan (DiscoverX)) EUB0000695a SYK; conditions: at 100 nM
[4] = molecular target: Dual specificity protein kinase CLK2 (Homo sapiens, UniProt P49760); assay: Selectivity interaction (Ambit KINOMEscan and KiNATiv profiling in Jurkat cells) EUB0000090b CLK2; type: cell-based; conditions: at 1 µM
Dual specificity protein kinase CLK2, sequence (P49760 whole entry, looked up): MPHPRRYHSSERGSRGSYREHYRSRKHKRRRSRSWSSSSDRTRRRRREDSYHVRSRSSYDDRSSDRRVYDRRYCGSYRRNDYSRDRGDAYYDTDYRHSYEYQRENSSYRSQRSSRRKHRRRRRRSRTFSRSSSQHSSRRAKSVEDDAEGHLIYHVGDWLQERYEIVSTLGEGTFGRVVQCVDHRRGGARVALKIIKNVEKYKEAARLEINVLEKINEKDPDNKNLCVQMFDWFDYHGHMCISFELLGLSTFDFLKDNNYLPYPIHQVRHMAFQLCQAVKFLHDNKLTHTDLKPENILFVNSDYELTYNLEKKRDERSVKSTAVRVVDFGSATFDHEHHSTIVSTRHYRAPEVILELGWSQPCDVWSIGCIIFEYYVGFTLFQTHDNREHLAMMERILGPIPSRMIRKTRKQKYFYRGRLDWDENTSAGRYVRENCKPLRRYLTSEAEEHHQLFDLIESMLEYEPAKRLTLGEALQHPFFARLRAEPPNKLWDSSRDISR

[5] = molecular target: T2, Serine/threonine-protein kinase RIO3 (Homo sapiens) (UniProt O14730); assay: Selectivity interaction (KinomeScan (DiscoverX)) EUB0000229b RIOK3; conditions: at 10 µM
T2 sequence (whole entry): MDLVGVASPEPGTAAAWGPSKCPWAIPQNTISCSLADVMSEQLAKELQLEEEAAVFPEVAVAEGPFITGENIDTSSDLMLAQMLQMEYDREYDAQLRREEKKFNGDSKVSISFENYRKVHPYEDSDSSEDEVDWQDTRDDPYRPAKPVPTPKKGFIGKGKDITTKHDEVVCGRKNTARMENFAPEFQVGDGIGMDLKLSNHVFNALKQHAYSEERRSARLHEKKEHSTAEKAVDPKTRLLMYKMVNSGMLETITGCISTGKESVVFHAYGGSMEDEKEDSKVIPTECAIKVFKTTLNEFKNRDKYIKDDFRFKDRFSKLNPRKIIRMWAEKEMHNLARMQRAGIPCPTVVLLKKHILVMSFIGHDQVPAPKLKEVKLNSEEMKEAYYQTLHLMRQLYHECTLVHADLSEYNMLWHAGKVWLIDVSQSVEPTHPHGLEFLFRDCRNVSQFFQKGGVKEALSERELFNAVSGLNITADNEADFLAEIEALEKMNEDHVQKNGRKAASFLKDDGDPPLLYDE

[6] = molecular target: T3, Serine/threonine-protein kinase ULK2 (Homo sapiens) (UniProt Q8IYT8); assay: Selectivity interaction (KinomeScan (DiscoverX)) EUB0000092b ULK2; conditions: at 10 µM
T3 sequence (whole entry): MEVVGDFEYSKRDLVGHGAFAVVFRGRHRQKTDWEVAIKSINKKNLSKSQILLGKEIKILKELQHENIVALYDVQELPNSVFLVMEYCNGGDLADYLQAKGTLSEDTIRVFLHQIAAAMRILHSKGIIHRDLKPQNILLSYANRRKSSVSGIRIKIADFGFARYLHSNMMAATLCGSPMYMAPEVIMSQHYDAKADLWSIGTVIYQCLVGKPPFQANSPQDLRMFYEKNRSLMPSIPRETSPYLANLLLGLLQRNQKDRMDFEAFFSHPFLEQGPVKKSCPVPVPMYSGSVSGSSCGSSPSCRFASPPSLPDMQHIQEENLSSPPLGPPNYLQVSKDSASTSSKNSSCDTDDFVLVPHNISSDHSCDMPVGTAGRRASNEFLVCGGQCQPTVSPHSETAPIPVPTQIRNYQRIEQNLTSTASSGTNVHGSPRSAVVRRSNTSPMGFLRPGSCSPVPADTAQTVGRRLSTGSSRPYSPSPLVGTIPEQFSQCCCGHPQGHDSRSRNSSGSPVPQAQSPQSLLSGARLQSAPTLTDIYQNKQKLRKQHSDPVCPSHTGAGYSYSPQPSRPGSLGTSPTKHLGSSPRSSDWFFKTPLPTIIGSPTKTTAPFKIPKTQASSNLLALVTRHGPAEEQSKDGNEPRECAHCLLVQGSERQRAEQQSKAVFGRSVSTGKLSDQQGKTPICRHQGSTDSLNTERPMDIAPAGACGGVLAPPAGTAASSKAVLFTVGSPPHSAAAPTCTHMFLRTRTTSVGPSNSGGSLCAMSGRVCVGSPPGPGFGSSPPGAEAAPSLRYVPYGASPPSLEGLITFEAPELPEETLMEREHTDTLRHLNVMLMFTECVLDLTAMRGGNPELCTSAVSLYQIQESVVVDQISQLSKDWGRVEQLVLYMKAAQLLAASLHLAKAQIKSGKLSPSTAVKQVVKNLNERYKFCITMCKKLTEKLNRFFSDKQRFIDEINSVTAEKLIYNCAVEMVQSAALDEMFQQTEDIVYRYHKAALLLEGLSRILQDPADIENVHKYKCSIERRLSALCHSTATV

% of control ([1]; at 1 µM): 86%
% of control ([1]; at 5 µM): 37%
% of control ([2]; at 1 µM): 92%
% of control ([2]; at 5 µM): 83%
Compound: C=CC(=O)Nc1cccc(C(=O)Nc2ccc(Nc3cc(-c4[nH]c(SC)nc4C)ccn3)cc2)c1

Compound: Cc1cc(F)c(C(=O)Nc2cccc(-c3nncn3C(C)C)n2)cc1-n1cnc(C2CC2)c1
% of control [3]: 76%

Compound: CN(C)C/C=C/C(=O)Nc1ccc(C(=O)N2CCCC(Nc3ncc(Cl)c(-c4c[nH]c5ccccc45)n3)C2)cc1 (stereo not drawn)
% of control [4]: 55%

Compound: COc1cc(N(C)c2ccnc3ccc(C(F)(F)F)cc23)cc(OC)c1OC
% binding [5]: 90%

Compound: CCC(=O)N1CCN(c2ccc(-n3c(=O)ccc4cnc5ccc(-c6cnc7ccccc7c6)cc5c43)cc2C(F)(F)F)CC1
% of control [6]: 75%
